According to ChEMBL document CHEMBL1201862, “PubChem BioAssay data set” (2004):
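Values below derive from 48-hour exposures of cells grown in 96-well plates, with endpoints linearly interpolated between the two concentrations bracketing the appropriate inhibition level. The concentration for 50% growth inhibition is given as GI50.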 Activity calls are given as the source filed them. Cut-off read from the data, not from the text of the source: active = GI50 up to about 1.1 µM and inactive = higher.

Columns and labels:
Experiment in all cases: NCI tumour cell line growth inhibition, 48 h
MDA-N = tested on: MDA-N
ACHN = tested on: ACHN
HOP-92 = tested on: HOP-92
EKVX = tested on: EKVX
T47D = tested on: T47D
SK-MEL-28 = tested on: SK-MEL-28
SNB-19 = tested on: SNB-19
SN12C = tested on: SN12C
NCI/ADR-RES = tested on: NCI/ADR-RES
UACC-257 = tested on: UACC-257
K562 = tested on: K562
MOLT-4 = tested on: MOLT-4
RPMI-8226 = tested on: RPMI-8226
UO-31 = tested on: UO-31
Hs-578T = tested on: Hs-578T
COLO 205 = tested on: COLO 205
NCI-H23 = tested on: NCI-H23
SK-OV-3 = tested on: SK-OV-3
MCF7 = tested on: MCF7
UACC-62 = tested on: UACC-62
SF-295 = tested on: SF-295
IGROV-1 = tested on: IGROV-1
HT-29 = tested on: HT-29
OVCAR-4 = tested on: OVCAR-4
PC-3 = tested on: PC-3
A549 = tested on: A549
M14 = tested on: M14
SK-MEL-5 = tested on: SK-MEL-5
RXF 393 = tested on: RXF 393
SW-620 = tested on: SW-620
HCT-116 = tested on: HCT-116
NCI-H522 = tested on: NCI-H522
HOP-62 = tested on: HOP-62
SK-MEL-2 = tested on: SK-MEL-2
CCRF-CEM = tested on: CCRF-CEM
SNB-75 = tested on: SNB-75
BT-549 = tested on: BT-549
HCT-15 = tested on: HCT-15
LOX IMVI = tested on: LOX IMVI
SF-539 = tested on: SF-539
OVCAR-3 = tested on: OVCAR-3
NCI-H460 = tested on: NCI-H460
MDA-MB-435 = tested on: MDA-MB-435
Malme-3M = tested on: Malme-3M
CAKI-1 = tested on: CAKI-1
OVCAR-8 = tested on: OVCAR-8
MDA-MB-231 = tested on: MDA-MB-231
TK-10 = tested on: TK-10
SF-268 = tested on: SF-268
786-0 = tested on: 786-0
NCI-H226 = tested on: NCI-H226
U-251 = tested on: U-251
OVCAR-5 = tested on: OVCAR-5
KM12 = tested on: KM12
A498 = tested on: A498
HCC 2998 = tested on: HCC 2998
DU-145 = tested on: DU-145
HL-60 = tested on: HL-60

With Brc1cccc(C2ON=C(c3ccccc3)N2C23CC4CC(CC(C4)C2)C3)c1 (stereo not given) the GI50 (MDA-N) was > 10 µM (inactive), the GI50 (ACHN) was > 10 µM (inactive) and the GI50 (HOP-92) was 5.42 µM (inactive). The GI50 (EKVX) was > 10 µM (inactive), the GI50 (T47D) was > 10 µM (inactive) and the GI50 (SK-MEL-28) was > 10 µM (inactive). The GI50 (SNB-19) was > 10 µM (inactive), the GI50 (SN12C) was > 10 µM (inactive) and the GI50 (NCI/ADR-RES) was > 10 µM (inactive). For the same compound, the GI50 (UACC-257) was > 10 µM (inactive), the GI50 (K562) was > 10 µM (inactive) and the GI50 (MOLT-4) was > 10 µM (inactive). For the same compound, the GI50 (RPMI-8226) was > 10 µM (inactive), the GI50 (UO-31) was > 10 µM (inactive) and the GI50 (Hs-578T) was > 10 µM (inactive). For the same compound, the GI50 (COLO 205) was > 10 µM (inactive), the GI50 (NCI-H23) was > 10 µM (inactive) and the GI50 (SK-OV-3) was > 10 µM (inactive). The GI50 (MCF7) was > 10 µM (inactive), the GI50 (UACC-62) was > 10 µM (inactive) and the GI50 (SF-295) was > 10 µM (inactive). For the same compound, the GI50 (IGROV-1) was > 10 µM (inactive), the GI50 (HT-29) was > 10 µM (inactive) and the GI50 (OVCAR-4) was > 10 µM (inactive). The GI50 (PC-3) was > 10 µM (inactive), the GI50 (A549) was > 10 µM (inactive) and the GI50 (M14) was > 10 µM (inactive). For the same compound, the GI50 (SK-MEL-5) was > 10 µM (inactive), the GI50 (RXF 393) was > 10 µM (inactive) and the GI50 (SW-620) was > 10 µM (inactive). For the same compound, the GI50 (HCT-116) was > 10 µM (inactive), the GI50 (NCI-H522) was > 10 µM (inactive) and the GI50 (HOP-62) was > 10 µM (inactive). The GI50 (SK-MEL-2) was > 10 µM (inactive), the GI50 (CCRF-CEM) was > 10 µM (inactive) and the GI50 (SNB-75) was 6.19 µM (inactive). The GI50 (BT-549) was > 10 µM (inactive), the GI50 (HCT-15) was > 10 µM and the GI50 (LOX IMVI) was > 10 µM (inactive). The GI50 (SF-539) was > 10 µM (inactive), the GI50 (OVCAR-3) was > 10 µM (inactive) and the GI50 (NCI-H460) was > 10 µM (inactive). For the same compound, the GI50 (MDA-MB-435) was > 10 µM (inactive), the GI50 (Malme-3M) was > 10 µM (inactive) and the GI50 (CAKI-1) was > 10 µM (inactive). For the same compound, the GI50 (OVCAR-8) was > 10 µM (inactive), the GI50 (MDA-MB-231) was > 10 µM (inactive) and the GI50 (TK-10) was > 10 µM (inactive). The GI50 (SF-268) was > 10 µM (inactive), the GI50 (786-0) was > 10 µM (inactive) and the GI50 (NCI-H226) was > 10 µM (inactive). The GI50 (U-251) was > 10 µM (inactive), the GI50 (OVCAR-5) was > 10 µM (inactive) and the GI50 (KM12) was > 10 µM (inactive). For the same compound, the GI50 (A498) was > 10 µM (inactive), the GI50 (HCC 2998) was > 10 µM (inactive) and the GI50 (DU-145) was > 10 µM (inactive).
With COc1ccc(-c2cc(=O)c3c(O)c(OC)c(O)cc3o2)cc1O the GI50 (MDA-N) was 0.406 µM (active), the GI50 (ACHN) was 13.8 µM (inactive) and the GI50 (HOP-92) was 15 µM (inactive). For the same compound, the GI50 (EKVX) was 9.25 µM (inactive), the GI50 (T47D) was 5.94 µM (inactive) and the GI50 (SK-MEL-28) was 22.5 µM (inactive). The GI50 (SNB-19) was 13.6 µM (inactive), the GI50 (SN12C) was 6.68 µM (inactive) and the GI50 (NCI/ADR-RES) was 2.69 µM (inactive). The GI50 (UACC-257) was 8.02 µM (inactive), the GI50 (K562) was 0.679 µM (active) and the GI50 (MOLT-4) was 3.19 µM (inactive). For the same compound, the GI50 (RPMI-8226) was 2.45 µM (inactive), the GI50 (UO-31) was 6.27 µM (inactive) and the GI50 (Hs-578T) was 3.08 µM (inactive). The GI50 (HL-60) was 1.25 µM (inactive), the GI50 (COLO 205) was 20.6 µM (inactive) and the GI50 (NCI-H23) was 17.7 µM (inactive). For the same compound, the GI50 (SK-OV-3) was 6.28 µM (inactive), the GI50 (MCF7) was 3.79 µM (inactive) and the GI50 (UACC-62) was 4.04 µM (inactive). For the same compound, the GI50 (SF-295) was 2.83 µM (inactive), the GI50 (IGROV-1) was 4.62 µM (inactive) and the GI50 (HT-29) was 16 µM (inactive). For the same compound, the GI50 (OVCAR-4) was 50.5 µM (inactive), the GI50 (PC-3) was 10 µM (inactive) and the GI50 (A549) was 6.4 µM (inactive). For the same compound, the GI50 (M14) was 3.4 µM (inactive), the GI50 (SK-MEL-5) was 3.41 µM (inactive) and the GI50 (RXF 393) was 9.4 µM (inactive). For the same compound, the GI50 (SW-620) was 3.13 µM (inactive), the GI50 (HCT-116) was 3.48 µM (inactive) and the GI50 (NCI-H522) was 1.97 µM (inactive). For the same compound, the GI50 (HOP-62) was 6.9 µM (inactive), the GI50 (SK-MEL-2) was 3.93 µM (inactive) and the GI50 (CCRF-CEM) was 3.7 µM (inactive). For the same compound, the GI50 (SNB-75) was 3.65 µM (inactive), the GI50 (BT-549) was 19.3 µM (inactive) and the GI50 (HCT-15) was 1.9 µM. For the same compound, the GI50 (LOX IMVI) was 3.51 µM (inactive), the GI50 (SF-539) was 2.69 µM (inactive) and the GI50 (OVCAR-3) was 9.04 µM (inactive). The GI50 (NCI-H460) was 3.3 µM (inactive), the GI50 (MDA-MB-435) was 0.582 µM (active) and the GI50 (Malme-3M) was 1.3 µM (inactive). For the same compound, the GI50 (CAKI-1) was 13.9 µM (inactive), the GI50 (OVCAR-8) was 9.55 µM (inactive) and the GI50 (MDA-MB-231) was 5.51 µM (inactive). For the same compound, the GI50 (TK-10) was 68.2 µM (inactive), the GI50 (SF-268) was 10.7 µM (inactive) and the GI50 (786-0) was 4.95 µM (inactive). For the same compound, the GI50 (NCI-H226) was 35 µM (inactive), the GI50 (U-251) was 5.26 µM (inactive) and the GI50 (OVCAR-5) was 32.8 µM (inactive). The GI50 (KM12) was 3.18 µM (inactive), the GI50 (A498) was 4.9 µM (inactive) and the GI50 (HCC 2998) was 6.12 µM (inactive). For the same compound, the GI50 (DU-145) was 7.64 µM (inactive).
In the case of O=[As](O)(O)c1ccc(/N=N/c2ccc(O)cc2)cc1, the GI50 (MDA-N) is reported as > 100 µM (inactive), the GI50 (ACHN) is reported as > 100 µM (inactive) and the GI50 (HOP-92) is reported as > 100 µM (inactive). The GI50 (EKVX) was > 100 µM (inactive), the GI50 (T47D) was > 100 µM (inactive) and the GI50 (SK-MEL-28) was > 100 µM (inactive). For the same compound, the GI50 (SNB-19) was > 100 µM (inactive), the GI50 (SN12C) was > 100 µM (inactive) and the GI50 (NCI/ADR-RES) was > 100 µM (inactive). For the same compound, the GI50 (K562) was 5.69 µM (inactive), the GI50 (MOLT-4) was 4.32 µM (inactive) and the GI50 (RPMI-8226) was > 100 µM (inactive). The GI50 (UO-31) was > 100 µM (inactive), the GI50 (Hs-578T) was > 100 µM (inactive) and the GI50 (HL-60) was > 100 µM (inactive). For the same compound, the GI50 (COLO 205) was > 100 µM (inactive), the GI50 (NCI-H23) was > 100 µM (inactive) and the GI50 (SK-OV-3) was > 100 µM (inactive). For the same compound, the GI50 (MCF7) was > 100 µM (inactive), the GI50 (UACC-62) was > 100 µM (inactive) and the GI50 (SF-295) was > 100 µM (inactive). The GI50 (IGROV-1) was > 100 µM (inactive), the GI50 (HT-29) was > 100 µM (inactive) and the GI50 (OVCAR-4) was > 100 µM (inactive). The GI50 (PC-3) was > 100 µM (inactive), the GI50 (A549) was > 100 µM (inactive) and the GI50 (M14) was > 100 µM (inactive). For the same compound, the GI50 (SK-MEL-5) was > 100 µM (inactive), the GI50 (RXF 393) was > 100 µM (inactive) and the GI50 (SW-620) was > 100 µM (inactive). The GI50 (HCT-116) was > 100 µM (inactive), the GI50 (NCI-H522) was > 100 µM (inactive) and the GI50 (HOP-62) was > 100 µM (inactive). For the same compound, the GI50 (SK-MEL-2) was > 100 µM (inactive), the GI50 (CCRF-CEM) was > 100 µM (inactive) and the GI50 (SNB-75) was > 100 µM (inactive). For the same compound, the GI50 (BT-549) was > 100 µM (inactive), the GI50 (HCT-15) was > 100 µM and the GI50 (LOX IMVI) was > 100 µM (inactive). For the same compound, the GI50 (OVCAR-3) was > 100 µM (inactive), the GI50 (NCI-H460) was > 100 µM (inactive) and the GI50 (MDA-MB-435) was > 100 µM (inactive). For the same compound, the GI50 (Malme-3M) was > 100 µM (inactive), the GI50 (CAKI-1) was > 100 µM (inactive) and the GI50 (OVCAR-8) was > 100 µM (inactive). The GI50 (MDA-MB-231) was > 100 µM (inactive), the GI50 (TK-10) was > 100 µM (inactive) and the GI50 (SF-268) was > 100 µM (inactive). The GI50 (786-0) was > 100 µM (inactive), the GI50 (NCI-H226) was > 100 µM (inactive) and the GI50 (U-251) was > 100 µM (inactive). For the same compound, the GI50 (OVCAR-5) was > 100 µM (inactive), the GI50 (KM12) was > 100 µM (inactive) and the GI50 (A498) was > 100 µM (inactive). The GI50 (DU-145) was > 100 µM (inactive).
